Experiments:
[1] = β-carotene test (coupled oxidation of β-carotene and linoleic acid), in vitro; details: β Carotene test; for antioxidant activity (in words): chromium compounds and their reactants; for EC50 for antioxidant activity of chromium compounds: Table 6
Description: Evaluation of antioxidant activity is based on coupled oxidation of β-carotene and linoleic acid. The technique consists of measuring the consumption of β-carotene as a result of its oxidation process in the reaction mixture. The β-carotene-linoleic acid method has been reported as an efficient technique to detect and evaluate antioxidants from plants and from other sources by several investigation groups. Ten milligram of β-carotene were dissolved in 10 ml chloroform and 0.6 ml of the solution was added to a round flask that contained 20 mg of linoleic acid and 200 mg of Tween 20. Chloroform was removed by evaporation, and 50 ml of distilled water were slowly added to the flask with vigorous agitation to form an emulsion. Two milliliters of the emulsion were added to 1 ml of the examined antioxidant solution. The tubes were placed in a water bath at 50° C. and absorbance measurements were made at 30 minutes intervals [M. S. Taga et al., J. Am. Oil Chem. Soc. 61: 928-931, 1984]. […]

[2] = FRAP assay (ferric reducing/antioxidant power), in vitro

Compound	antioxidant activity (in words) [1]	EC50 for antioxidant activity of chromium compounds [1]	further results
O=S(=O)([O-])[O-].O=S(=O)([O-])[O-].O=S(=O)([O-])[O-].[Cr+3].[Cr+3] [Cr2(SO4)3, chromium sulfate, reference compound]	relatively much lower antioxidant effect		
CC(=O)[O-].CC(=O)[O-].CC(=O)[O-].[Cr+3] [Cr Acetate, chromium acetate, reference compound]	lacks any antioxidant activity		
[Cl][Cr]([Cl])[Cl] [CrCl3, chromium chloride, reference compound]	relatively much lower antioxidant effect	7.2 × 10^-4 mg Cr/ml	antioxidant activity (in words) ([2]; chromium compounds, FRAP, all concentrations used): inactive
N[C@@H](CS)C(=O)O [Cysteine, cysteine, reference compound]	no antioxidant activity		
N[C@@H](CCC(=O)N[C@@H](CS)C(=O)NCC(=O)O)C(=O)O [Glutathione, glutathione, reference compound]	lower activity		
CC(=O)N[C@@H](CS)C(=O)O [NAC, N-acetyl cysteine, reference compound]	lower activity		
Chromium Cysteine [Cr-Cys]	the most active complex	7.8 × 10^-8 mg Cr/ml	antioxidant activity (in words) ([1]; listed as Cr-cysteine): dose dependent antioxidant activity; fold more active than cysteine ([2]; at equal concentrations of cysteine, FIG. 27): 2.5 fold
Chromium N-Acetyl Cysteine [Cr-NAC]	dose dependent antioxidant activity	2.7 × 10^-7 mg Cr/ml	
Chromium-Cystine	did not show any antioxidant activity		
Chromium-Glutathione [Cr-GSH]	dose dependent antioxidant activity	2.7 × 10^-7 mg Cr/ml	

Source: US6326034A, “Natural extracted and synthetic antioxidant compositions” (priority 1999, dated 2001)
